Test results taken from US20230279016A1, “Tetrahydropyrazolopyrimidines and Related Analogs for Inhibiting YAP/TAZ-TEAD” (THE KATHOLIEKE UNIVERSITEIT LEUVEN, priority 2021, published 2023).

Tested on: YAP/TAZ-TEAD transcription
Assay: Reporter gene assay for measuring the inhibition of YAP/TAZ-TEAD transcription (TEAD-responsive element luciferase reporter in Hek293T cells)
Format: cell-based
Conditions: Hek293T cells transiently transfected with TEAD-responsive element luciferase reporter, 24 hours incubation
Method: Hek293T cells are cultured in DMEM supplemented with 10% fetal bovine serum, Sodium pyruvate, Sodium bicarbonate, L-glutamine. The cells are harvested and transiently transfected with TEAD-responsive element luciferase reporter. Transfected cells are plated in 384-wells plate containing pre-diluted compounds. After 24 hours incubation at 37° C./5%CO2, assay plates were cooled down to RT and levelled to an equal volume per well, prior to the addition of 25 uL luciferase substrate SteadyLite (Perkin Elmer)/well. The plate was shaken for 10 min at 600 rpm, centrifuged for 1min at 500 rpm and measured with an Envision reader (PerkinElmer). The amount of relative light units produced by the TEAD reporter is used to calculated percent of inhibition.
The percent of reporter inhibition was calculated in the presence of a positive control inhibitor (100% inhibition) versus a condition with the presence of the vehicle basal activity of the reporter (0% inhibition). The ability of a test compound to inhibit this activity was determined as:
Percentage inhibition=[1-((RLU determined in the presence of vehicle—RLU determined for sample with test compound present) divided by (RLU determined in the presence of vehicle — RLU determined for sample with positive control inhibitor))] * 100
The activities of the example compounds tested are depicted in the table below. The activity ranges A, B and C refer to EC50 values in the reporter gene assay as described as follows: “A”: EC50 <1 μM; “B” : 1 μM≤EC50≤20 μM and “C” : EC50>20 μM, NT=not tested.

| SMILES | EC50 | EC50 (Homo sapiens, HEK-293T, 24 h) |
| --- | --- | --- |
| C=CC(=O)NCC1CN(c2cccc(F)c2)c2ccnn2C1 (single isomer, unassigned) [Cpd. No. 004-En1, (R)- or (S)-N-((4-(3-fluorophenyl)-4,5,6,7-tetrahydropyrazolo[1,5-a]pyrimidin-6-yl)methyl)acrylamide] | 1000 to 20000 nM | – |
| C=CC(=O)NCC1CN(c2ccc(F)cc2)c2ccnn2C1 (single isomer, unassigned) [Cpd. No. 006-En1, (R)- or (S)-N-((4-(4-fluorophenyl)-4,5,6,7-tetrahydropyrazolo[1,5-a]pyrimidin-6-yl)methyl)acrylamide] | 1000 to 20000 nM | – |
| C=CC(=O)NCC1CN(c2ccc(C(F)F)cc2)c2ccnn2C1 (single isomer, unassigned) [Cpd. No. 009-En1, (R)- or (S)-N-((4-(4-(difluoromethyl)phenyl)-4,5,6,7-tetrahydropyrazolo[1,5-a]pyrimidin-6-yl)methyl)acrylamide] | 1000 to 20000 nM | – |
| C=CC(=O)NCC1CN(c2ccc(C(F)F)nc2)c2ccnn2C1 (single isomer, unassigned) [Cpd. No. 010-En1, (R)- or (S)-N-((4-(6-(difluoromethyl)pyridin-3-yl)-4,5,6,7-tetrahydropyrazolo[1,5-a]pyrimidin-6-yl)methyl)acrylamide] | > 20000 nM | – |
| C=CC(=O)NCC1CN(c2ccc(-c3ccccc3)cc2)c2ccnn2C1 (single isomer, unassigned) [Cpd. No. 017-En1, (R)- or (S)-N-((4-([1,1′-biphenyl]-4-yl)-4,5,6,7-tetrahydropyrazolo[1,5-a]pyrimidin-6-yl)methyl)acrylamide] | > 20000 nM | – |
| C=CC(=O)NCC1CN(c2ccc(Br)cc2)c2ccnn2C1 (single isomer, unassigned) [Cpd. No. 021-En1, (R)- or (S)-N-((4-(4-bromophenyl)-4,5,6,7-tetrahydropyrazolo[1,5-a]pyrimidin-6-yl)methyl)acrylamide] | – | < 1000 nM |
| C=CC(=O)NCC1CN(c2ccn(C)c(=O)c2)c2ccnn2C1 (single isomer, unassigned) [Cpd. No. 024-En1, (R)- or (S)-N-((4-(1-methyl-2-oxo-1,2-dihydropyridin-4-yl)-4,5,6,7-tetrahydropyrazolo[1,5-a]pyrimidin-6-yl)methyl)acrylamide] | – | > 20000 nM |
| C=CC(=O)NCC1CN(c2ccn(C)c(=O)c2)c2ccnn2C1 (single isomer, unassigned) [Cpd. No. 024-En2, (R)- or (S)-N-((4-(1-methyl-2-oxo-1,2-dihydropyridin-4-yl)-4,5,6,7-tetrahydropyrazolo[1,5-a]pyrimidin-6-yl)methyl)acrylamide] | > 20000 nM | – |
| C=CC(=O)NCC1CN(c2ccc3scnc3c2)c2ccnn2C1 (single isomer, unassigned) [Cpd. No. 026-En1, (R)- or (S)-N-((4-(benzo[d]thiazol-5-yl)-4,5,6,7-tetrahydropyrazolo[1,5-a]pyrimidin-6-yl)methyl)acrylamide] | – | 1000 to 20000 nM |
| C=CC(=O)NCC1CN(c2ccc3scnc3c2)c2ccnn2C1 (single isomer, unassigned) [Cpd. No. 026-En2, (R)- or (S)-N-((4-(benzo[d]thiazol-5-yl)-4,5,6,7-tetrahydropyrazolo[1,5-a]pyrimidin-6-yl)methyl)acrylamide] | 1000 to 20000 nM | – |
| CCC(=O)NCC1CN(c2ccc(C(F)(F)F)cc2)c2ccnn2C1 (single isomer, unassigned) [Cpd. No. 028-En1, (R)- or (S)-N-((4-(4-(trifluoromethyl)phenyl)-4,5,6,7-tetrahydropyrazolo[1,5-a]pyrimidin-6-yl)methyl)propionamide] | > 20000 nM | – |

Results, then the compound that gave them:

| EC50 | EC50 (Homo sapiens, HEK-293T, 24 h) | SMILES |
| --- | --- | --- |
| < 1000 nM | – | C=CC(=O)NCC1CN(c2ccc(C(F)(F)F)cc2)c2ccnn2C1 (single isomer, unassigned) [Cpd. No. 002-En1, (R)- or (S)-N-((4-(4-(trifluoromethyl)phenyl)-4,5,6,7-tetrahydropyrazolo[1,5-a]pyrimidin-6-yl)methyl)acrylamide] |
| < 1000 nM | – | C=CC(=O)NCC1CN(c2ccc(C(F)(F)F)cc2)c2ccnn2C1 (single isomer, unassigned) [Cpd. No. 002-En2, (R)- or (S)-N-((4-(4-(trifluoromethyl)phenyl)-4,5,6,7-tetrahydropyrazolo[1,5-a]pyrimidin-6-yl)methyl)acrylamide] |
| < 1000 nM | – | C=CC(=O)NCC1CN(c2cccc(F)c2)c2ccnn2C1 (single isomer, unassigned) [Cpd. No. 004-En2, (R)- or (S)-N-((4-(3-fluorophenyl)-4,5,6,7-tetrahydropyrazolo[1,5-a]pyrimidin-6-yl)methyl)acrylamide] |
| < 1000 nM | – | C=CC(=O)NCC1CN(c2ccc(Cl)cc2)c2ccnn2C1 (single isomer, unassigned) [Cpd. No. 005-En1, (R)- or (S)-N-((4-(4-chlorophenyl)-4,5,6,7-tetrahydropyrazolo[1,5-a]pyrimidin-6-yl)methyl)acrylamide] |
| < 1000 nM | – | C=CC(=O)NCC1CN(c2ccc(Cl)cc2)c2ccnn2C1 (single isomer, unassigned) [Cpd. No. 005-En2, (R)- or (S)-N-((4-(4-chlorophenyl)-4,5,6,7-tetrahydropyrazolo[1,5-a]pyrimidin-6-yl)methyl)acrylamide] |
| < 1000 nM | – | C=CC(=O)NCC1CN(c2ccc(F)cc2)c2ccnn2C1 (single isomer, unassigned) [Cpd. No. 006-En2, (R)- or (S)-N-((4-(4-fluorophenyl)-4,5,6,7-tetrahydropyrazolo[1,5-a]pyrimidin-6-yl)methyl)acrylamide] |
| < 1000 nM | – | C=CC(=O)NCC1CN(c2ccc(C(F)F)cc2)c2ccnn2C1 (single isomer, unassigned) [Cpd. No. 009-En2, (R)- or (S)-N-((4-(4-(difluoromethyl)phenyl)-4,5,6,7-tetrahydropyrazolo[1,5-a]pyrimidin-6-yl)methyl)acrylamide] |
| < 1000 nM | – | C=CC(=O)NCC1CN(c2ccc(C(F)F)nc2)c2ccnn2C1 (single isomer, unassigned) [Cpd. No. 010-En2, (R)- or (S)-N-((4-(6-(difluoromethyl)pyridin-3-yl)-4,5,6,7-tetrahydropyrazolo[1,5-a]pyrimidin-6-yl)methyl)acrylamide] |
| < 1000 nM | – | C=CC(=O)NCC1CN(c2ccc(C(F)(F)F)c(F)c2)c2ccnn2C1 (single isomer, unassigned) [Cpd. No. 015-En1, (R)- or (S)-N-((4-(3-fluoro-4-(trifluoromethyl)phenyl)-4,5,6,7-tetrahydropyrazolo[1,5-a]pyrimidin-6-yl)methyl)acrylamide] |
| < 1000 nM | – | C=CC(=O)NCC1CN(c2ccc(C(F)(F)F)c(F)c2)c2ccnn2C1 (single isomer, unassigned) [Cpd. No. 015-En2, (R)- or (S)-N-((4-(3-fluoro-4-(trifluoromethyl)phenyl)-4,5,6,7-tetrahydropyrazolo[1,5-a]pyrimidin-6-yl)methyl)acrylamide] |
| < 1000 nM | – | C=CC(=O)NCC1CN(c2ccc(-c3ccccc3)cc2)c2ccnn2C1 (single isomer, unassigned) [Cpd. No. 017-En2, (R)- or (S)-N-((4-([1,1′-biphenyl]-4-yl)-4,5,6,7-tetrahydropyrazolo[1,5-a]pyrimidin-6-yl)methyl)acrylamide] |
| < 1000 nM | – | CCC(=O)NCC1CN(c2ccc(C(F)(F)F)cc2)c2ccnn2C1 (single isomer, unassigned) [Cpd. No. 028-En2, (R)- or (S)-N-((4-(4-(trifluoromethyl)phenyl)-4,5,6,7-tetrahydropyrazolo[1,5-a]pyrimidin-6-yl)methyl)propionamide] |
